# Experimental data taken from article PMC6615252, “The binding affinity of PTPN13’s tandem PDZ2/3 domain is allosterically modulated” (BMC Molecular and Cell Biology, 2019).
# Where “and” joins values, the source holds several entries; their conditions need not be identical. Equal values may be shown once. Entries after “also recorded” stand apart in the source; their conditions may differ. Residues, ends and D or L forms follow the SMILES beside them.
# B1: PTPN13 PDZ2 (protein)
# chain: DIFEVELAKNDNSLGISVTGGVNTSVRHGGIYVKAVIPQGAAESDGRIHKGDRVLAVNGVSLEGATHKQAVETLRNTGQVVHLLLEKGQSP
# B2: PTPN13 (PDZ2 in PDZ2/3 tandem) PDZ2 in PDZ2/3 (protein)
# chain: EVELAKNDNSLGISVTGGVNTSVRHGGIYVKAVIPQGAAESDGRIHKGDRVLAVNGVSLEGATHKQAVETLRNTGQVVHLLLEKG
# B3: PTPN13 (PDZ3 in PDZ2/3 tandem) PDZ3 in PDZ2/3 (protein)
# chain: EVKLFKNSSGLGFSFSREDNLIPEQINASIVRVKKLFPGQPAAESGKIDVGDVILKVNGASLKGLSQQEVISALRGTAPEVFLLLCRP
# B4: PDZ3: single PDZ3 domain (residues 1491–1579) of PTPN13 (protein, UniProt Q12923 1491-1579, looked up, fragment)
# chain: YSFVTEENTFEVKLFKNSSGLGFSFSREDNLIPEQINASIVRVKKLFPGQPAAESGKIDVGDVILKVNGASLKGLSQQEVISALRGTAP
# modifications: PDZ3 domain
# notes: single PDZ3 domain (residues 1491–1579) of PTPN13
# Assays:
# [1] = biological target: PDZ3 domain of PTPN13; conditions: single PDZ3 domain; NMR titration, 298 K, pH 7.4, PBS, DTT added; ref [12]; read-out: dissociation constant KD, PDZ3; cited from earlier work
# From the text: The observed differences for APC binding to PDZ2 versus tandem PDZ2/3 are not large yet still considerable.
# [2] = biological target: T1, PDZ2/3 tandem domain of PTPN13 (Mus musculus, UniProt Q64512); assay: NMR titration of PDZ2/3 tandem domain with APC peptide, chemical shift perturbations and exchange regime; format: binding
# T1 construct: pGEX-2 T-PDZ2/3 (PTPN13 residues 1347–1580); GST (N, cleaved yes); made in house; host or cells: E. coli BL21(DE3)
# T1 sequence (Q64512 1347-1580): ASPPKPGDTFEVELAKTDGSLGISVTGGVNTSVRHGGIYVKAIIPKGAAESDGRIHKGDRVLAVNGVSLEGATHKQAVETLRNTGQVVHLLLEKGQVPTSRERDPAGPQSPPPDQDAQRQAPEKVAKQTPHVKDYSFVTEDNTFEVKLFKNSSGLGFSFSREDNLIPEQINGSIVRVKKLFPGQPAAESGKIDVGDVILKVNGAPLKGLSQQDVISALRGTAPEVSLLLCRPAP
# Method: (§1) We have applied multidimensional heteronuclear NMR spectroscopy in order to elucidate the binding affinities of the PDZ2 single domain and the tandem domain PDZ2/3 of PTPN13 for the chemically synthesized C-terminal dodecapeptides derived from APC and PRK2. The binding characteristics were analyzed in a titration series of the dodecamer peptides and ^15N isotopically-enriched PDZ2 and PDZ2/3 samples, respectively, and by monitoring the NMR chemical shift perturbations in a series of 2D ^1H-^15N heteronuclear single quantum coherence (HSQC) spectra with increasing ligand concentrations. It could be shown that all peptides bind to the canonical binding groove of PDZ domains (Figs. 1, 2, 3 and 4).
# (§2) NMR spectra were acquired at 298 K on Bruker DRX 600 and AVANCE III HD 700 spectrometers. Typically, NMR samples contained 0.1–0.5 mM uniformly ^13C and/or ^15N-enriched protein in PBS buffer at pH 7.4 including 10% D2O [42–44]. All data were processed with either NMRPipe and analyzed with NMR View or TopSpin (www.bruker.com). The backbone assignments were obtained from the BioMagResBank accession numbers 15,199 (PDZ2/3) and 5131 (PDZ2). The interaction between PDZ2 and PDZ3 was analyzed upon titrating PDZ3 to isotopically ^15N-enriched PDZ2 at a molar ratio of 1:1 at 298 K by recording 2D ^1H-^15N-HSQC NMR spectra. […] The differences in backbone ^1H and ^15N NMR chemical shifts were monitored via 2D ^1H-^15N-HSQC NMR spectra. The weighted ^1HN and ^15N chemical shift differences were calculated according to the following equation [45, 47]: […]
# Averaged dissociation constants for the different complexes were calculated from least-squares fitting of the NMR chemical shift perturbations observed for several amino acids as a function of ligand concentration. NMR chemical shift perturbation data were analysed with the ORIGIN software package (www.originlab.com) as previously published. The error for KD values was calculated from the individual fit of several significant chemical shift perturbations found for the amide resonances located in and/or next to the canonical PDZ binding cleft. […]
# [3] = biological target: T2, PDZ3 in PDZ2/3 tandem domain of PTPN13 (Mus musculus, UniProt Q64512); assay: NMR titration of PDZ2/3 tandem domain, PDZ3 resonances (PDZ3 in PDZ2/3); format: binding; conditions: data not shown
# T2 construct: pGEX-2 T-PDZ2/3 (PTPN13 residues 1347–1580); GST (N, cleaved yes); made in house; host or cells: E. coli BL21(DE3)
# T2 sequence (Q64512 1347-1580): T1 sequence (Q64512 1347-1580)
# Method: as §1, with “4). […]” for “4).”
# as §2, with “Typically, NMR samples contained 0.1–0.5 mM uniformly ^13C and/or ^15N-enriched protein in PBS buffer at pH 7.4 including 10% D2O [42–44].” left out, “The backbone assignments were obtained from the BioMagResBank accession numbers 15,199 (PDZ2/3) and 5131 (PDZ2).” left out
# [4] = tested on: single PDZ2 domain of PTPN13; conditions: previous study; class I (APC) and III (RIL) ligands; ref [21]; cited from earlier work
# From the text: Based on the results from the NMR chemical shift perturbation analysis and HADDOCK molecular docking calculations we conclude, that an allosteric effect modulates the APC-binding characteristics of PDZ2 from PTPN13 (Fig. 7). Although peptides rather than the corresponding full-length proteins have been used here, numerous studies have shown before that the last four to six carboxy-terminal amino acids are essential for ligand binding to PDZ domains.
# [5] = biological target: T3, PDZ2 in PDZ2/3 tandem domain of PTPN13 (Mus musculus, UniProt Q64512); assay: NMR titration of PDZ2/3 tandem domain, PDZ2 resonances (PDZ2 in PDZ2/3); format: binding; conditions: final stoichiometric ratio APC:PDZ2/3 30:1
# T3 construct: pGEX-2 T-PDZ2/3 (PTPN13 residues 1347–1580); GST (N, cleaved yes); made in house; host or cells: E. coli BL21(DE3)
# T3 sequence (Q64512 1347-1580): T1 sequence (Q64512 1347-1580)
# Method: as §1, with “4). […]” for “4).”
# as §2, with “Typically, NMR samples contained 0.1–0.5 mM uniformly ^13C and/or ^15N-enriched protein in PBS buffer at pH 7.4 including 10% D2O [42–44].” left out, “The backbone assignments were obtained from the BioMagResBank accession numbers 15,199 (PDZ2/3) and 5131 (PDZ2).” left out
# [6] = biological target: T4, PDZ2 domain of PTPN13 (Mus musculus, UniProt Q64512); assay: NMR titration (2D 1H-15N-HSQC chemical shift perturbation) of 15N-enriched single PDZ2 domain with C-terminal dodecapeptides; format: binding; conditions: for NMR chemical shift perturbations of PDZ2 on peptide binding: 2D 1H-15N-HSQC, 298 K, pH 7.4
# T4 construct: pGEX-2 T-PDZ2 (PTPN13 residues 1347–1450); GST (N, cleaved yes); made in house; host or cells: E. coli BL21(DE3)
# T4 sequence (Q64512 1347-1450): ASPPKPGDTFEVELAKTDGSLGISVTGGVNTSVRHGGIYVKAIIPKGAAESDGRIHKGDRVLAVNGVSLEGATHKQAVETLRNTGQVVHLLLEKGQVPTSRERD
# Method: as §1
# Bacterial expression plasmids pGEX-2 T-PDZ2 (PTPN13 residues 1347–1450), pGEX-2 T-PDZ3 (PTPN13 residues 1474–1580), and pGEX-2 T-PDZ2/3 (PTPN13 residues 1347–1580) were constructed by sub-cloning of PCR-generated PTPN13 cDNA fragments in-frame into appropriate pGEX-2 T vectors.
# as §2, with “The backbone assignments were obtained from the BioMagResBank accession numbers 15,199 (PDZ2/3) and 5131 (PDZ2).” left out
# Averaged dissociation constants for the different complexes were calculated from least-squares fitting of the NMR chemical shift perturbations observed for several amino acids as a function of ligand concentration. NMR chemical shift perturbation data were analysed with the ORIGIN software package (www.originlab.com) as previously published. […]
# [7] = biological target: T5, PRK2 peptide (Homo sapiens); assay: NMR titration
# T5 chain: MFRDFDYIADWC
# [8] = biological target: T6, APC peptide (Homo sapiens); assay: NMR titration
# T6 chain: KRHSGSYLVTSV
# [9] = biological target: T4, PDZ2 domain of PTPN13; assay: NMR titration of single PDZ3 domain to 15N-enriched PDZ2 domain; format: binding; conditions: 15N-PDZ2, molar ratio 1:1, 2D 1H-15N-HSQC, 298 K; stoichiometry limited by solubility
# Method: Thus, we titrated the single PDZ3 domain (residues 1491–1579) to the ^15N-enriched PDZ2 domain (residues 1357–1442) and monitored their interaction by recording a series of 2D ^1H-^15N-HSQC NMR spectra (Fig. 4a). […] However, the final maximal stoichiometry of PDZ2 and PDZ3 was approx. 1:1 due to solubility issues.
# NMR spectra were acquired at 298 K on Bruker DRX 600 and AVANCE III HD 700 spectrometers. Typically, NMR samples contained 0.1–0.5 mM uniformly ^13C and/or ^15N-enriched protein in PBS buffer at pH 7.4 including 10% D2O [42–44]. All data were processed with either NMRPipe and analyzed with NMR View or TopSpin (www.bruker.com). The backbone assignments were obtained from the BioMagResBank accession numbers 15,199 (PDZ2/3) and 5131 (PDZ2). The interaction between PDZ2 and PDZ3 was analyzed upon titrating PDZ3 to isotopically ^15N-enriched PDZ2 at a molar ratio of 1:1 at 298 K by recording 2D ^1H-^15N-HSQC NMR spectra. In this study, the numbering scheme of the assigned chemical shifts for PDZ2 (5131) and PDZ23 (15199) has been shifted by one residue so that, for example, T30 according to the BMRB entry 5131 now equals T31. […] The differences in backbone ^1H and ^15N NMR chemical shifts were monitored via 2D ^1H-^15N-HSQC NMR spectra. The weighted ^1HN and ^15N chemical shift differences were calculated according to the following equation [45, 47]: […]
molecule,measurement,setting,value
CC(=O)N[C@@H](CCCCN)C(=O)N[C@@H](CCCNC(=N)N)C(=O)N[C@@H](Cc1c[nH]cn1)C(=O)N[C@@H](CO)C(=O)NCC(=O)N[C@@H](CO)C(=O)N[C@@H](Cc1ccc(O)cc1)C(=O)N[C@@H](CC(C)C)C(=O)N[C@H](C(=O)N[C@H](C(=O)N[C@@H](CO)C(=O)N[C@H](C(=O)O)C(C)C)[C@@H](C)O)C(C)C [APC],Kd,[1],~721 µM and 721 µM
same,NMR chemical shift perturbations of PDZ2/3 tandem on titration,"[2]; 2D 1H-15N-HSQC, 298 K, pH 7.4","NMR chemical shift perturbations were observed for G12, L19, T31, G63, H94, L95, L97 of PDZ2 and K152 as well as S231 of PDZ3 in the tandem domain"
same,NMR exchange regime of binding to tandem PDZ2/3,"[2]; 298 K, pH 7.4",fast exchange
same,chemical shift differences between single PDZ2-APC complex and PDZ2 in PDZ2/3-APC complex,"[2]; APC peptide at molar ratio 1:30, single PDZ2 vs PDZ2 in PDZ2/3","Major NMR chemical shift perturbations were observed on the back of the PDZ2 domain, i.e. opposite to the canonical PDZ binding cleft, mainly for EF (H94, L95, L97) and for EA (L19)"
same,saturation of PDZ3 at end of titration,[3],PDZ3 was not fully saturated at the end of the titration
same,binding to single PDZ2 domain,[4],able to bind
same,saturation of PDZ2 resonances at end of titration,[5],no further chemical shift changes were observed for amide resonances originating from the PDZ2 domain
same,NMR chemical shift perturbations of PDZ2 on peptide binding,[6],leads to NMR chemical shift differences observed along intra-domain signal pathways as previously predicted
same,peptide-induced dimerisation of PDZ2,[6]; comparison of free and APC-bound NMR spectra of individual PDZ2,exclude an APC-induced dimerisation of PDZ2
CC[C@H](C)[C@H](NC(=O)[C@H](Cc1ccc(O)cc1)NC(=O)[C@H](CC(=O)O)NC(=O)[C@H](Cc1ccccc1)NC(=O)[C@H](CC(=O)O)NC(=O)[C@H](CCCNC(=N)N)NC(=O)[C@H](Cc1ccccc1)NC(=O)[C@H](CCSC)NC(C)=O)C(=O)N[C@@H](C)C(=O)N[C@@H](CC(=O)O)C(=O)N[C@@H](Cc1c[nH]c2ccccc12)C(=O)N[C@@H](CS)C(=O)O [PRK2] (Ac-MFRDFDYIADWC-OH; C-terminus assumed),Kd,[1],318 ± 47 µM
same,NMR chemical shift perturbations of PDZ2 on peptide binding,[6],"NMR chemical shift differences were observed for the canonical ligand binding groove of PDZ2 including G23, S24, which are also involved in peptide recognition, and S28, and G31; also recorded: Additional NMR chemical shift perturbations were observed for the β-strands EA and EF of PDZ2, located opposite to its canonical peptide binding groove"
B1,Kd,[7],661 µM
same,Kd,[8],286 µM
B2,Kd,[8],211 µM
B3,Kd,[8],2570 µM
B4,chemical shift differences of PDZ2 upon titration with PDZ3,[9],"Only very minor chemical shift differences could be observed, if at all; also recorded: only yielded minor chemical shift differences; also recorded: Only very minor, if at all, chemical shift differences could be observed"
